{
  "source": "patent US10703761B2",
  "about": "“Bile acid receptor modulators and methods of use thereof” (City of Hope, priority 2016, dated 2020)",
  "key": {"FXR": {"molecular_target": "T1, FXR (Homo sapiens, UniProt Q96RI1)", "T1 construct": "expressed in transfected cells; host or cells: HEK293 (transient)", "T1 sequence (Q96RI1 1-486)": "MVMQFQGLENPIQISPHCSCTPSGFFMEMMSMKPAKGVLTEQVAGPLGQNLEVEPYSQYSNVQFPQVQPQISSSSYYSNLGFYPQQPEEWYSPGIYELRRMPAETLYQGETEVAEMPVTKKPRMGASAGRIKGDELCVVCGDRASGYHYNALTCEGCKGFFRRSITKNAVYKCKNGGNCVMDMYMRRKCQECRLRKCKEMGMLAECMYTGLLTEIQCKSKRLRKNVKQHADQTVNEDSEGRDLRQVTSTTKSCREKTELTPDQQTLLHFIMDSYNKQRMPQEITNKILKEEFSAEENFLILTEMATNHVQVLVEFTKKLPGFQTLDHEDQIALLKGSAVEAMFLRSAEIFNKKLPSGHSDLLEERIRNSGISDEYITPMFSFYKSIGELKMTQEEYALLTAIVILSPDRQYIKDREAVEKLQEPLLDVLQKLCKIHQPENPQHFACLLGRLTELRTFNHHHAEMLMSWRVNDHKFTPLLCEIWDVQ", "T1 sequence (P19793 1-462 partner)": "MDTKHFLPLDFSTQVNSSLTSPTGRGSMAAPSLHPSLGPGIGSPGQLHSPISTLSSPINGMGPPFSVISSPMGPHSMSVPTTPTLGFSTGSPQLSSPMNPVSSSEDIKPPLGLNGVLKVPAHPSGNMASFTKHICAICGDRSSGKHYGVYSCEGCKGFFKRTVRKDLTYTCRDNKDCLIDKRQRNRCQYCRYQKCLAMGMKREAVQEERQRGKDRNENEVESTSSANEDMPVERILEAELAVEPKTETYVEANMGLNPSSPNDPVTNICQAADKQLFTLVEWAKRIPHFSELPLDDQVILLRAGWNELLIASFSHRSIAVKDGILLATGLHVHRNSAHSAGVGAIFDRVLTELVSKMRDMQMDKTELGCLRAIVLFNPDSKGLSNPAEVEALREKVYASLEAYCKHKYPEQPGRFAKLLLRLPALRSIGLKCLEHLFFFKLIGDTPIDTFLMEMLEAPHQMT", "experiment": "FXR luciferase reporter assay, transient transfection with a synthetic FXR responsive reporter plasmid in HEK293 cells", "type": "cell-based", "conditions": "compound alone, compared with GW4064", "description": "Effect of berberine derivatives and γ-aminobutyric acid derivative on FXR inhibition was initially assessed using transient transfections with a synthetic FXR responsive reporter plasmid. HEK 293 Cells were treated with vehicle alone or 100 μM CDCA with or without compounds, as indicated. Results are luciferase expression normalized using the β-gal internal control.\nTGR5-reporting activity was evaluated by luciferase assay. Treatments were performed in quadruplicate and normalized with β-galactosidase. HEK293 cells were transfected with FXR and RXRα, and FXRE-containing luciferase construct. Cells were treated with 10 μM of indicated compounds; luciferase was measured and normalized with β-galactosidase.\nTo evaluate TGR5 activity of compounds, cells were transfected 100 ng pCRE-luc reporter along with pCMV-galactosidase (10 ng) as an internal control for normalization of transfection efficiency. Plasmids were complexed with […] of Fugene 6 reagent (Promega, Madison, Wis.) in OptiMEM (Invitrogen, Carlsbad, Calif.) and cells were transfected for 18 h. The following day, cells were treated with vehicle and appropriate ligand as indicated. Luciferase and β-galactosidase activities were assayed 6 h later using Luciferase Assay System (Promega) and Galacto-Star (Applied Biosystems, Foster City, Calif.) reagents, respectively, and a MLX luminometer (Dynex Technologies, Chantilly, Va.). To evaluate the FXR activity of compounds, HEK293 cells were transfected with 25 ng of farnesoid X receptor expression plasmid (pCMX-hFXR), 25 ng of retinoid X receptor expression plasmid (pCMXhRXR), 100 ng of reporter plasmid (pEcREx6-TK-Luc), and 10 ng of pCMV-b-galactosidase as an internal control in each well, using Fugene 6 reagent. Approximately 18 h after transfection, cells were incubated for 12 h with different concentrations of each."}, "[1]": {"conditions": "in vivo; cited from earlier work"}, "[2]": {"test_system": "metabolic nuclear receptors", "experiment": "Activation of metabolic nuclear receptors compared with native ligands", "type": "cell-based", "conditions": "10 μM", "description": "FIG. 2(A) HEK293 cells lacking or overexpressing TGR5 were treated with increasing doses of berberine for 16 hours and TGR5-reporting activity was evaluated using luciferase assays. FIG. 2(B) Ability of berberine to activate metabolic nuclear receptors was evaluated in comparison to native ligands. All ligands were used at a 10 μM concentration.\nOur current efforts are also aimed at extending these studies in vivo to murine type II diabetic models (using high fat diet feeding) with and without the TGR5 receptor. Confirmation of the berberine effect was evaluated using q-RT-PCR to assess activated TGR5 target genes including inflammatory gene expression and deiodinase-2."}, "db/db mice": {"test_system": "db/db mice", "conditions": "mouse, in vivo; cited from earlier work"}, "FXR-RXR heterodimers": {"molecular_target": "T2, FXR-RXR heterodimers (Homo sapiens, UniProt Q96RI1)", "T2 sequence (Q96RI1 1-486)": "T1 sequence (Q96RI1 1-486)", "T2 sequence (P19793 1-462 partner)": "T1 sequence (P19793 1-462 partner)", "experiment": "Specific DNA binding by FXR-RXR heterodimers in vitro", "type": "biochemical", "conditions": "data not shown"}, "NCI-H716 cells": {"test_system": "NCI-H716 cells", "conditions": "cited from earlier work"}},
  "note": "“Also recorded” adds a separate entry of the source.",
  "data": [
    {"compound": "COc1ccc2cc3[n+](cc2c1OC)CCc1cc2c(cc1-3)OCO2", "note": "[berberine]", "values": [
      {"measurement": "FXR activity of compound alone (agonism)", "setting": "FXR", "result": "failed to activate FXR"},
      {"measurement": "FXR activity of compound alone (agonism)", "setting": "FXR; listed as Berberine", "result": "no effect on FXR activity"},
      {"measurement": "Plasma concentration / gut restriction", "setting": "[1]", "result": "keeps low concentration in plasma"},
      {"measurement": "Activation of other metabolic nuclear receptors", "setting": "[2]", "result": "does not activate other metabolic nuclear receptors"},
      {"measurement": "Metabolic properties in db/db mice", "setting": "db/db mice", "result": "insulin sensitizing as well as weight- and lipid-lowering properties"},
      {"measurement": "Specific DNA binding by FXR-RXR heterodimers", "setting": "FXR-RXR heterodimers", "result": "did not affect specific DNA binding"},
      {"measurement": "Prohormone convertase 3 and proglucagon mRNA expression", "setting": "NCI-H716 cells", "result": "promoted both prohormone convertase 3 and proglucagon mRNA expression"},
      {"measurement": "GLP-1 release", "setting": "NCI-H716 cells; in vitro", "result": "modulated GLP-1 release; also recorded: concentration-dependently stimulated GLP-1 release"}
    ]}
  ]
}
